According to US20060142271A1, “Novel lapacho compounds and methods of use thereof” (priority 2002, published 2006):
pIC50: −log10 of the molar value. Like-named read-outs stand apart in the source and are kept apart here.

Key:
[1] = system: colon cancer cell line DLD1; assay: Cancer cell line colony survival assay, DLD1; type: cell-based, human; conditions: colon cancer cell line DLD1, 4 h exposure, colonies after 10-15 days, read-out: AA in Cancer Cell Lines IC50 (μM) DLD1
Description: (§1) HaCaT keratinocyte proliferation assay and LDH release were described previously in full detail (Muller et al. J. Med. Chem. 39: 3132-3138, 1996; Müller et al. J. Med. Chem. 37: 1660-1669, 1994). For the cancer cell line studies, exponentially growing cells were seeded at 1,000 cells per well in six-well plates and allowed to attach for 24 h. Compounds of the invention or β-lapachone, solubflized in DMSO, were added to the wells in micromolar concentrations. Control wells were treated with equivalent volumes of DMSO. After 4 h the supernatant was removed and fresh medium was added. Cultures were observed daily for 10-15 days and then were fixed and stained. Colonies of greater than 30 cells were scored as survivors.

HaCaT cells [2] = type: cell-based, human; conditions: for LDH (mU): human, 2 μM
Description: as §1
The cytotoxicity of naphthoquinones has been thought to result, at least in part, from reactive oxygen species, generated during redox cycling between the […] and reduction products (Munday, R., Free Radic. Biol. Med., 22, 689-695, 1997), which cause peroxidative damage to membrane lipids. To assess the correlation of keratinocyte growth inhibition with membrane damage, the release of lactate dehydrogenase from the treated cells was also quantitated.

[3] = system: breast cancer cell line MCF7; assay: Cancer cell line colony survival assay, MCF7; type: cell-based, human; conditions: breast cancer cell line MCF7, 4 h exposure, colonies after 10-15 days, read-out: AA in Cancer Cell Lines IC50 (μM) MCF7
Description: as §1

[4] = system: colon cancer cell line SW480; assay: Cancer cell line colony survival assay, SW480; type: cell-based, human; conditions: colon cancer cell line SW480, 4 h exposure, colonies after 10-15 days, read-out: AA in Cancer Cell Lines IC50 (μM) SW480
Description: as §1

HaCaT cells [5] = assay: HaCaT keratinocyte proliferation assay (cell counting); type: cell-based, human; conditions: for inhibition of HaCaT cell proliferation (in words): HaCaT cells; for pIC50: antiproliferative activity against HaCaT cells, N = 3, read-out: AA in HaCaT Cells IC50
Description: Anthralin, an antipsoriatic drug, was used as a positive control. Antiproliferative activity was measured directly by counting the dispersed cells under a phase-contrast microscope.
as §1, with “survivors. […]” for “survivors.”

[6] = system: human keratinocyte cell line HaCaT; conditions: Müller et al., J. Nat. Prod. 62 (1999); cited from earlier work

Compound	LDH (mU) (HaCaT cells [2])	melting point	IC50 ([1]; Homo sapiens, DLD-1) [µM]	LDH release compared to vehicle control (in words) (HaCaT cells [2])	IC50 ([3]; Homo sapiens) [µM]	IC50 ([4]; Homo sapiens) [µM]	inhibition of HaCaT cell proliferation (in words) (HaCaT cells [5])	pIC50 (HaCaT cells [5]; Homo sapiens)	further results
CC(=O)c1cc2c(o1)C(=O)c1ccccc1C2=O [Compound 6, 2-Acetyl-naphtho[2,3-b]furan4,9-dione]	331	–	0.8	significant LDH release as compared to vehicle	≤ 1	≤ 1	inhibited cell proliferation	6.30	–
COc1ccc(C(=O)c2cc3cc4ccccc4cc3s2)cc1 [Compound 62a, (4-Methoxyphenyl)-naphtho[2,3-b]thiophen-2-yl-methanone]	–	–	> 32	–	> 32	> 32	–	< 5.30	–
COc1ccc(C(=O)c2cc3c(s2)C(=O)c2ccccc2C3=O)cc1 [Compound 62b, 2-(4-Methoxybenzoyl)-naphtho[2,3-b]thiophene-4,9-dione]	–	–	5.5	–	3	16	–	< 5.30	–
O=C(c1ccc(O)cc1)c1cc2c(s1)C(=O)c1ccccc1C2=O [Compound 62c, 2-(4-Hydroxybenzoyl)-naphtho[2,3-b]thiophene-4,9-dione]	123	–	5.3	–	2	12	–	5.57	–
CC(=O)c1cc2cc3ccccc3cc2s1 [Compound 63a, Naphtho[2,3-b]thiophen-2-yl-ethanone]	–	–	–	without significant elevation of LDH release over the vehicle control	–	–	inhibited cell proliferation at concentrations comparable to β-lapachone and the furan analogs	–	IC50 [1]: > 32 µM; IC50 [3]: > 32 µM; IC50 [4]: > 32 µM; pIC50 (HaCaT cells [5]): 5.30
CC(=O)c1cc2cc3ccccc3cc2o1 [Compound 73a, Naphtho[2,3-b]furan-2-yl-ethanone]	–	–	–	–	–	–	–	–	IC50 [1]: > 32 µM; IC50 [3]: > 32 µM; IC50 [4]: > 32 µM; pIC50 (HaCaT cells [5]): < 5.30
COc1ccc(C(=O)c2cc3cc4ccccc4cc3o2)cc1OC [Compound 75a, (3,4-Dimethoxyphenyl)-naphtho[2,3-b]furan-2-yl-methanone]	–	–	14	–	12	30	–	< 5.30	–
COc1ccc(C(=O)c2cc3c(o2)C(=O)c2ccccc2C3=O)cc1OC [Compound 75b, 2-(3,4-Dimethoxybenzoyl)-naphtho[2,3-b]furan:4,9-dione]	–	–	–	–	–	–	–	–	IC50 [1]: 1.4 µM; pIC50 (HaCaT cells [5]): 5.60
CC(=O)Oc1cccc2c1C(=O)c1ccsc1C2=O [Compound 81, 5-Acetoxy-naphtho[2,3-b]thiophene-4,9-dione]	160	–	–	without significant elevation of LDH release over the vehicle control	–	–	inhibited cell proliferation at concentrations comparable to β-lapachone and the furan analogs	5.85	–
O=C1c2cccc(O)c2C(=O)c2ccsc21 [Compound 82, 5-Hydroxy-naphtho[2,3-b]thiophene-4,9-dione]	117	–	–	without significant elevation of LDH release over the vehicle control	–	–	inhibited cell proliferation at concentrations comparable to β-lapachone and the furan analogs	6.00	–
O=C1c2c(O)cccc2Cc2cccc(O)c21 [anthralin, reference compound]	294	–	–	LDH release significantly higher than vehicle controls	–	–	–	6.15	–
CC(C)=CCC1=C(O)C(=O)c2ccccc2C1=O [lapachol]	–	–	–	–	–	–	–	–	inhibition of keratinocyte growth in HaCaT model (in words) [6]: relatively inactive
CC1(C)CCC2=C(O1)C(=O)c1ccccc1C2=O [α-lapachone, reference compound]	–	–	–	–	–	–	–	–	IC50 (HaCaT cells [5]; Homo sapiens, HaCaT, read-out: AA in HaCaT Cells IC50 (μM)): 10 µM; inhibition of keratinocyte growth in HaCaT model (in words) [6]: relatively inactive

The next lines start with results.

LDH (mU) (HaCaT cells [2])	melting point	Compound	IC50 ([1]; Homo sapiens, DLD-1) [µM]	LDH release compared to vehicle control (in words) (HaCaT cells [2])	IC50 ([3]; Homo sapiens) [µM]	IC50 ([4]; Homo sapiens) [µM]	inhibition of HaCaT cell proliferation (in words) (HaCaT cells [5])	pIC50 (HaCaT cells [5]; Homo sapiens)	further results
134	261 to 262 °C	CC(=O)c1cc2c(s1)C(=O)c1ccccc1C2=O [Compound 63b, 2-Acetyl-naphtho[2,3-b]thiophene-4,9-dione]	1	–	≤ 1	4	–	6.52	–
122	164 to 165 °C	O=C(c1ccccc1)c1cc2cc3ccccc3cc2s1 [Compound 64a, Naphtho[2,3-b]thiophen-2-yl-phenylmethanone]	1.5	–	≤ 1	≤ 1	–	6.52	–
–	158 to 159 °C	O=C(c1ccccc1)c1cc2c(s1)C(=O)c1ccccc1C2=O [Compound 64b, 2-Benzoyl-naphtho[2,3-b]thiophene-4,9-dione]	1.3	without significant elevation of LDH release over the vehicle control	≤ 1	4	inhibited cell proliferation at concentrations comparable to β-lapachone and the furan analogs	5.77	–
–	175 to 176 °C	COc1ccc(C(=O)c2cc3cc4ccccc4cc3s2)cc1OC [Compound 65a, (3,4-Dimethoxyphenyl)-naphtho[2,3-b]thiophen-2-yl-methanone]	> 32	–	> 32	> 32	–	< 5.30	–
137	212 to 218 °C	COc1ccc(C(=O)c2cc3c(s2)C(=O)c2ccccc2C3=O)cc1OC [Compound 65b, 2-(3,4-Dimethoxybenzoyl)-naphtho[2,3-b]thiophene-4,9-dione]	2.6	without significant elevation of LDH release over the vehicle control	≤ 1	10	inhibited cell proliferation at concentrations comparable to β-lapachone and the furan analogs	6.10	–
118	272 to 274 °C (dec.)	O=C(c1ccc(O)c(O)c1)c1cc2c(s1)C(=O)c1ccccc1C2=O [Compound 65c, 2-(3,4-Dihydroxybenzoyl)-naphtho[2,3-b]thiophene-4,9-dione]	11	without significant elevation of LDH release over the vehicle control	8	20	inhibited cell proliferation at concentrations comparable to β-lapachone and the furan analogs	5.82	–
–	251 to 252 °C	O=C(c1ccc([N+](=O)[O-])cc1)c1cc2cc3ccccc3cc2s1 [Compound 66a, Naphtho[2,3-b]thiophen-2-yl-(4-nitrophenyl)methanone]	> 32	–	> 32	> 32	–	< 5.30	–
–	270 °C	O=C(c1ccc([N+](=O)[O-])cc1)c1cc2c(s1)C(=O)c1ccccc1C2=O [Compound 66b, 2-(4-Nitrobenzoyl)-naphtho[2,3-b]thiophene-4,9-dione]	25	–	–	–	–	5.40	–
142	140 to 142 °C	O=C(c1ccccc1)c1cc2cc3ccccc3cc2o1 [Compound 74a, Naphtho[2,3-b]furan-2-yl-phenylmethanone]	7.6	–	≤ 1	12	–	5.72	–
222	198 to 200 °C	O=C(c1ccccc1)c1cc2c(o1)C(=O)c1ccccc1C2=O [Compound 74b, 2-Benzoyl-naphtho[2,3-b]furan-4,9-dione]	–	–	–	–	–	6.15	–
